Source: patent publication US20250353816A1, “QUINOLINES AS MODULATORS OF POLRMT” (Pretzel Therapeutics, Inc., priority 2024, published 2025)

Each molecule was assayed against POLRMT (Homo sapiens (Human), UniProt O00411) (assay: homogeneous TR-FRET assay of mitochondrial transcription (inhibition of POLRMT)). Conditions: 7.5 nM POLRMT, 15 nM TFB2M, 30 nM TFAM, 60 minutes at 37° C.
Format: biochemical
Description: The inhibitory activity of the compounds of the present invention against POLRMT were determined by assays based on Bergbrede, T., et al., “An adaptable high-throughput technology enabling the identification of specific transcription modulators,” SLAC Discov., 22, 378-386 (2017).
The ability of some compounds of the present invention to inhibit POLRMT were determined in a homogeneous TR-FRET Assay using high-throughput screening in a 384-well plate format. This method is used to monitor the activity of mitochondrial transcription through measurement of its product, a 407 bp long RNA transcript. Detection of the product is facilitated by hybridization of two DNA-oligonucleotide probes to specific and adjacent sequences within the RNA product sequence. Upon annealing of the probes, two fluorophores are coupled directly to an acceptor nucleotide probe (ATTO647, 5′), or introduced via a coupled streptavidin with a biotinylated donor nucleotide probe (Europium cryptate) that is brought into sufficient proximity to serve as a fluorescence-donor-acceptor pair. Thus, a FRET signal at 665 nm is generated upon excitation at 340 nm.
Proteins used as transcription factors (POLRMT: NP_005026.3, TFAM: NP_003192.1, TFB2M: NP_071761.1) are diluted from their stocks to working concentrations of 1 μM, 20 μM and 4 μM respectively, in a dilution buffer containing 20 mM Tris-HCl (pH 8.0), 200 mM NaCl, 10% (v/v) glycerol, 1 mM Dithiothreitol (DTT), 0.5 mM EDTA.
DNA template is a pUC18 plasmid with the mitochondrial light strand promotor sequence (1-477) cloned between HindIII and BamHI sites. The DNA template is restriction linearized proximal to the promotor 3′-end (pUC-LSP).
The reaction mixture (10 uL) containing 7.5 nM POLRMT, 15 nM of TFB2M, 30 nM of TFAM, 0.5 nM of DNA template and 500 μM nucleotide triphosphate mix (NTPs) in a reaction buffer (containing 10 mM Tris-HCl (pH 7.5), 10 mM MgCl2, 40 mM NaCl, 10 mM DTT, 0.005% (w/v) Tween-20, 160 units/ml Rnase inhibitor and 0.1 mg/mL BSA) are dispensed to compounds in microplates, using a Thermo Multidrop® dispenser, and incubated at 37° C. in a VWR INCU-Line incubator for 60 minutes after mixing. No nucleotide triphosphate mix is added to negative control samples. Microplates with compounds to be tested in the assay are prepared from 10 mM compound stocks in 100% DMSO, equal amounts of DMSO without any compound are added to positive control and negative control samples.
During the incubation, a mix of the detection reagents is prepared in a buffer such that the enzymatic reaction is terminated due to chelating of Mg-ions and increased ionic strength, containing 50 mM Tris-HCl (pH 7.5), 700 mM NaCl, 20 mM EDTA, and 0.01% (w/v) Tween-20. Europium-streptavidin is pre-incubated with a 200-fold molar excess of a random sequence oligonucleotide to block unspecific binding of oligo, for two hours at ambient temperature in the dark. Afterwards, the blocked Europium-streptavidin is kept on ice until use.
At the end of the enzymatic reaction time, 5 μL detection oligo mix in the detection buffer is added, and assay plates are mixed and kept at ambient temperature for one hour, protected from light. The concentration of the Acceptor nucleotide oligo (e.g., ATTO647N-5′-[…]-3′ (SEQ ID NO: 1)) and Donor nucleotide oligo (e.g., bio-5′-AACACATCTCT(-bio)GCCAAACCCCA-bio-3′ (SEQ ID NO: 2)) in each assay well is 1 nM, and 3 nM, respectively.
After incubation with oligo mix, 5 μL of pre-blocked Europium-streptavidin reagent is dispensed to each assay well, assay plates are again mixed and kept at ambient temperature for one hour, protected from light.
The generated signal is measured with BMG Pherastar microtiter plate reader with a TRF light unit, using excitation at 340 nm, an integration time of 200 μs, and a delay time of […], before detection at 620 nm and 665 nm. The ratio of donor- and acceptor-fluorescence is used as a measure of the generated transcript product (i.e. enzymatic activity).

Chain of POLRMT (O00411 42-1230): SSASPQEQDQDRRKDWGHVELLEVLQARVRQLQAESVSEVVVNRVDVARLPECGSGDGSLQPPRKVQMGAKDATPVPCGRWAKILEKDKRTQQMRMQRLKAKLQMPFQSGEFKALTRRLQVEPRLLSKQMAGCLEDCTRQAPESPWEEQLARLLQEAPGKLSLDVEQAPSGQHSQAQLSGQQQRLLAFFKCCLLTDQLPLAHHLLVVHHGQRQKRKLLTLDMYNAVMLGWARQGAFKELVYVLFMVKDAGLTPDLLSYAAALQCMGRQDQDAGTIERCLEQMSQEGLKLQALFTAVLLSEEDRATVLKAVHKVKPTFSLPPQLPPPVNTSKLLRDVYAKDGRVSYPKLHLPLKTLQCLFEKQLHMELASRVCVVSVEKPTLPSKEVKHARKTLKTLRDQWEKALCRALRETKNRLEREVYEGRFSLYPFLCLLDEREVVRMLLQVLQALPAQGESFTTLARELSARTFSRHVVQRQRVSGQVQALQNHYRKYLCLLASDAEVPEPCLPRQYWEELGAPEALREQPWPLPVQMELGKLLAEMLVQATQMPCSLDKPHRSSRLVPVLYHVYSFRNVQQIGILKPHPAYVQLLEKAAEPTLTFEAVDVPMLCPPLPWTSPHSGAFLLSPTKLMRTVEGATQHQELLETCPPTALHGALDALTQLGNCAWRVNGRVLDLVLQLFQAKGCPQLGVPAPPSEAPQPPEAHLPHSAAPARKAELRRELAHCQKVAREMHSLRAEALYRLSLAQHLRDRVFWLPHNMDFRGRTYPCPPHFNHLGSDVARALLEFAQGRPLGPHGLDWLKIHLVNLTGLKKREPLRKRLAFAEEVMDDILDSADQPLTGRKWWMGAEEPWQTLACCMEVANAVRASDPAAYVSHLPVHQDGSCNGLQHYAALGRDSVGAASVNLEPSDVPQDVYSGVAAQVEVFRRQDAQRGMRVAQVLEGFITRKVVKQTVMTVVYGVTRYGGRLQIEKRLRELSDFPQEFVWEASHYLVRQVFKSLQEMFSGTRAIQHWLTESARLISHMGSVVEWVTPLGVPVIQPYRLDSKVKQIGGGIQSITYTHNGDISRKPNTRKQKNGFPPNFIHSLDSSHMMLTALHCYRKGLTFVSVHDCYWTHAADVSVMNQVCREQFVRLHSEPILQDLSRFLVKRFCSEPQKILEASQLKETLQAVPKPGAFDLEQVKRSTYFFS

| IC50 [µM] | SMILES |
| --- | --- |
| > 100 | CNC(=O)Cc1ccc2c(-c3ccccc3C)ccnc2c1 [Example 44, N-methyl-2-(4-(o-tolyl)quinolin-7-yl)acetamide] |
| > 100 | Cc1ccccc1-c1ccnc2cc(C(C)OCC(N)=O)ccc12 (centres unmarked) [Example 56, 2-(1-(4-(o-tolyl)quinolin-7-yl)ethoxy)acetamide] |
| > 100 | Cc1ccccc1-c1ccnc2cc(CC(=O)N(C)C)ccc12 [Example 43, N,N-dimethyl-2-(4-(o-tolyl)quinolin-7-yl)acetamide] |
| > 100 | Cc1ccccc1-c1ccnc2cc(CC(=O)N3CCOCC3)ccc12 [Example 36, 1-morpholino-2-(4-(o-tolyl)quinolin-7-yl)ethan-1-one] |
| 5 | COCc1ccc2c(-c3ccccc3C)ccnc2c1 [Example 19, 7-(methoxymethyl)-4-(o-tolyl)quinoline] |
| 10 | Cc1ccccc1-c1ccnc2cc(NC(C)C(=O)N(C)C)ccc12 (single isomer, unassigned) [Example 49, N,N-dimethyl-2-((4-(o-tolyl)quinolin-7-yl)amino)propanamide] |
| 91 | Cc1ccccc1-c1ccnc2cc(CC(=O)NC3CC3)ccc12 [Example 30, N-cyclopropyl-2-(4-(o-tolyl)quinolin-7-yl)acetamide] |
| > 100 | Cc1ccccc1-c1ccnc2cc(CC(N)=O)ccc12 [Example 42, 2-(4-(o-tolyl)quinolin-7-yl)acetamide] |

The remaining lines, values behind:

| SMILES | IC50 [µM] |
| --- | --- |
| Cc1ccccc1-c1ccnc2cc(NC(C)C(=O)N3CCCCC3)ccc12 (single isomer, unassigned) [Example 53, 1-(piperidin-1-yl)-2-((4-(o-tolyl)quinolin-7-yl)amino)propan-1-one] | 3 |
| Cc1ccccc1-c1ccnc2cc(CNS(=O)(=O)c3ccccc3)ccc12 [Example 14, N-((4-(o-tolyl)quinolin-7-yl)methyl)benzenesulfonamide] | 68 |
| Cc1ccccc1-c1ccnc2cc(C(=O)N(C)Cc3ccccc3)ccc12 [Example 5, N-benzyl-N-methyl-4-(o-tolyl)quinoline-7-carboxamide] | > 100 |
| Cc1ccccc1-c1ccnc2cc(C(C)CC(=O)N(C)C)ccc12 (single isomer, unassigned) [Example 37, N,N-dimethyl-3-(4-(o-tolyl)quinolin-7-yl)butanamide] | 79 |
| Cc1ccccc1-c1ccnc2cc(CC(C)C(=O)N3CCCCC3)ccc12 (single isomer, unassigned) [Example 34, 2-methyl-1-(piperidin-1-yl)-3-(4-(o-tolyl)quinolin-7-yl)propan-1-one] | 2 |
| Cc1ccccc1-c1ccnc2cc(C(=O)NCc3ccccc3)ccc12 [Example 6, N-benzyl-4-(o-tolyl)quinoline-7-carboxamide] | 90 |
| Cc1ccccc1-c1ccnc2cc(CN(C)C(=O)C3CCCC3)ccc12 [Example 24, N-methyl-N-((4-(o-tolyl)quinolin-7-yl)methyl)cyclopentanecarboxamide] | 10 |
| Cc1ccccc1-c1ccnc2cc(NC(C)C(=O)N3CCCCC3)ccc12 (centres unmarked) [Example 45, 1-(piperidin-1-yl)-2-((4-(o-tolyl)quinolin-7-yl)amino)propan-1-one] | 4 |
| Cc1ccccc1-c1ccnc2cc(CC(=O)N3CCN(C)CC3)ccc12 [Example 39, 1-(4-methylpiperazin-1-yl)-2-(4-(o-tolyl)quinolin-7-yl)ethan-1-one] | > 100 |
